# Experimental data as given in patent EP0334551A1, “Anti-neoplastic formulations” (priority 1988, dated 1989).
# Where two headings read alike, the source gives them in different places.
# How the values were obtained:
# [1] = in all the infusion fluids studied; cited from earlier work
# [2] = reconstituted solutions of the lyophilised powder, cited from earlier work
# [3] = aqueous solution of unlyophilised carboplatin in sterile water, at room temperature
# Description: The solutions obtained were filled into amber moulded 20 ml vials and sealed with Teflon-lined caps, West 541. The above two solutions were stored at room temperature for 15 months, then tested for stability. […] The solution was filled into 20 ml amber moulded vials and sealed with grey chlorobutyl rubber caps. […] Each solution was filled into 6 ml clear drawn vials and sealed with Teflon lined caps.
Compound,stable (time) [1],stable (time) ([2]; at room temperature),stable (time) ([2]; under refrigeration),stable (time) [3]
iproplatin,24 h,,,
"[NH2][Pt]1([NH2])[O]C(=O)C2(CCC2)C(=O)[O]1 [carboplatin, cis-Diamine[1,1-cyclobutanedicarboxylato-(2-)-O,O′]platinum [SP-4-27]]",24 h,8 h,24 h,at least 18 months
